We go through 24 compounds from patent publication US20090099195A1 (ASTRAZENECA AB, priority 2007, published 2009).

Assay [1] deals with T1, hP2X3 (human Purinergic P2X receptors subtype 3), clone A (Homo sapiens, UniProt P56373).
T1 sequence (P56373 1-397): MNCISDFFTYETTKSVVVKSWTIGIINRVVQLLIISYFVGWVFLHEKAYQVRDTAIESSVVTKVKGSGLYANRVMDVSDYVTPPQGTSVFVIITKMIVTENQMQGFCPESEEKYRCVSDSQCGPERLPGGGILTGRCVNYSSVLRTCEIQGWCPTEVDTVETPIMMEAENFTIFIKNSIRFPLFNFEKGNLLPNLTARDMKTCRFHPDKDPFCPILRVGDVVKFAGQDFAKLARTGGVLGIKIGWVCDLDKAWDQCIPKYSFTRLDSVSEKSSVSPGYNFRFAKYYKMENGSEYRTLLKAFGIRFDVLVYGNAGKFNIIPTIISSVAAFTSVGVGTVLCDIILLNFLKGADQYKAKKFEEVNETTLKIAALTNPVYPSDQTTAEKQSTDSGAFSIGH
The experiment in a line: hP2X3 FLIPR calcium (Fluo-4) antagonist assay, clone A. The conditions noted are these: Human P2X3 FLIPR Clone A Mean IC50 (nM), RLE cells expressing hP2X3 clone A (AB016608); agonist 500 nM α,β-methylene-ATP.
Experimental: The assay used a calcium indicator dye (Fluo-4) that emits fluorescence, the intensity of which is related to the concentration of calcium that entered the cell when P2X3 was activated and the channel opened. Activation of hP2X3 or rat P2X3 and rat P2X2/3 (from the coexpression of rat P2X3 and rat P2×2) is elicited the by P2X3 agonist α,β methylene-ATP (Sigma M6517), and the resulting fluorescence is measured with a FLIPR II™ instrument (Molecular Devices). Compounds are tested for their ability to inhibit the agonist-induced fluorescent signal.
For the rat P2X2/3 HEK-TREX cells, induction of the rat P2X3 expression is used to generate the rat P2X2/3 channels in HEK-TREX cells and performed by addition of 1 μg/mL tetracycline (Invitrogen) 24 h prior to compounds testing to the HEK-TREX expressing the rat P2X2 constitutively. On the day of the experiment, the cells and test compounds are prepared as follows. […] After preparing the compounds, the medium is removed from the cell plates by inversion. A loading solution of 30 μL assay buffer containing 4 μM of the calcium indicator dye FLUO-4 AM (Molecular Probes F14202) is added to each well using a Multidrop (Labsystems). […] The incubation is terminated by washing the cells four times in assay buffer using a Skatron Embla (Molecular Devices), and 25 μL of assay buffer was left in each well. Cell plates are then transferred to the FLIPR. Experiments are initiated by measuring a baseline fluorescence reading for 10 seconds, followed by the addition of 12.5 μL of cpds and data sampling for a total 280 seconds. The experiments are terminated by addition of 12.5 μL of a reference agonist (500 nM α,β-methylene-ATP) or buffer, producing a final assay volume of 50 μL followed by data sampling for an additional 280 seconds.
In P2X3 antagonist experiments (human and rat assays) data are analysed as normalised maximal peak fluorescence monitored following agonist addition and calculated as percent of relative fluorescent counts from control agonist. The dose-response antagonist inhibition curves are analyzed in a 4-parameter sigmoidal fit using a non-linear curve-fitting program (XLfit version 5.0.6, ID Business Solutions Limited, Guildford, UK).

The target of assay [2] is T2, hP2X3 (human Purinergic P2X receptors subtype 3), clone B (Homo sapiens, UniProt P56373).
T2 sequence (P56373 1-397): T1 sequence (P56373 1-397)
Kind of assay: hP2X3 FLIPR calcium (Fluo-4) antagonist assay, clone B. The conditions noted are these: Human P2X3 FLIPR Clone B IC50 (nM), RLE cells expressing hP2X3 clone B (NM_002559); agonist 500 nM α,β-methylene-ATP.

In general, IC50 refers to the concentration at which inhibition is half-maximal. On to `CCOc1ccc([C@@H](C)Nc2nc(N3CCN(C(C)=O)CC3)nc3c2CN(C(C)C)C3=O)c(F)c1` [Example 204, (R)-2-(4-acetylpiperazin-1-yl)-4-(1-(4-ethoxy-2-fluorophenyl)ethylamino)-6-isopropyl-5H-pyrrolo[3,4-d]pyrimidin-7(6H)-one], for which the figures for the IC50 in assay [1] and in assay [2] were 50.4 nM and 38 nM, respectively. The matching figures for `CC(=O)N1CCN(c2nc(N[C@H](C)c3cccc(C(F)(F)F)c3F)c3c(n2)C(=O)N(C(C)C)C3)CC1` [Example 187, (R)-2-(4-acetylpiperazin-1-yl)-4-(1-(2-fluoro-3-(trifluoromethyl)phenyl)ethylamino)-6-isopropyl-5H-pyrrolo[3,4-d]pyrimidin-7(6H)-one]: 117 nM and 96 nM.

Turning to `CCOc1ccc([C@H](Nc2nc(N3CCN(C(C)=O)CC3)nc3c2CN(C(C)C)C3=O)C2CC2)cc1` [Example 185, (R)-2-(4-acetylpiperazin-1-yl)-4-(cyclopropyl(4-ethoxyphenyl)methylamino)-6-isopropyl-5H-pyrrolo[3,4-d]pyrimidin-7(6H)-one], the half-inhibitory concentration (IC50) turned out to be 79.7 nM in assay [1] and 74 nM in assay [2]. The matching figures for `CC(=O)N1CCN(c2nc(N[C@H](C)c3ccc(OC(C)C)c(F)c3)c3c(n2)C(=O)N(C(C)C)C3)CC1` [Example 190, (R)-2-(4-acetylpiperazin-1-yl)-4-(1-(3-fluoro-4-isopropoxyphenyl)ethylamino)-6-isopropyl-5H-pyrrolo[3,4-d]pyrimidin-7(6H)-one]: 47.2 nM and 44 nM. The matching figures for `CCN(c1nc(N2CCN(C(C)=O)CC2)nc2c1CN(C(C)C)C2=O)C(C)c1ccc2ncccc2c1` (single isomer, unassigned) [Example 258, 2-(4-acetylpiperazin-1-yl)-4-(ethyl(1-(quinolin-6-yl)ethyl)amino)-6-isopropyl-5H-pyrrolo[3,4-d]pyrimidin-7(6H)-one]: 232 nM and 250 nM. Take `CC(=O)N1CCN(c2nc(N[C@H](C)c3cc(F)cc(C(F)(F)F)c3)c3c(n2)C(=O)N(C(C)C)C3)CC1` [Example 184, (R)-2-(4-acetylpiperazin-1-yl)-4-(1-(3-fluoro-5-(trifluoromethyl)phenyl)ethylamino)-6-isopropyl-5H-pyrrolo[3,4-d]pyrimidin-7(6H)-one]: the IC50 in assay [1] was 101 nM; in assay [2], 87 nM. The matching figures for `CC(=O)N1CCN(c2nc(N[C@H](C)c3ccc(F)c(C(F)(F)F)c3)c3c(n2)C(=O)N(C(C)C)C3)CC1` [Example 188, (R)-2-(4-acetylpiperazin-1-yl)-4-(1-(4-fluoro-3-(trifluoromethyl)phenyl)ethylamino)-6-isopropyl-5H-pyrrolo[3,4-d]pyrimidin-7(6H)-one]: 174 nM and 140 nM. On the same counts, the results for `CC(=O)N1CCN(c2nc3c(c(N4CCCC4c4ccc(F)cc4)n2)CN(C(C)C)C3=O)CC1` (stereo not drawn) [Example 292, 2-(4-acetylpiperazin-1-yl)-4-[2-(4-fluorophenyl)pyrrolidin-1-yl]-6-(1-methylethyl)-5,6-dihydro-7H-pyrrolo[3,4-d]pyrimidin-7-one] are 4950 nM and 3600 nM. In the case of `CCC(C)N1Cc2c(nc(N3CCN(C(C)=O)CC3)nc2N(CC)Cc2cc3ccccc3cn2)C1=O` (single isomer, unassigned) [Example 317, 2-(4-acetylpiperazin-1-yl)-4-[ethyl(isoquinolin-3-ylmethyl)amino]-6-(1-methylpropyl)-5,6-dihydro-7H-pyrrolo[3,4-d]pyrimidin-7-one], the concentration for half-maximal inhibition (IC50) in assay [1] was 40 nM; in assay [2] it was 32 nM.

Consider `CC(=O)N1CCN(c2nc3c(c(N4CCCC4c4ccc(C)c(C)c4)n2)CN(C(C)C)C3=O)CC1` (stereo not drawn) [Example 298, 2-(4-acetylpiperazin-1-yl)-4-[2-(3,4-dimethylphenyl)pyrrolidin-1-yl]-6-(1-methylethyl)-5,6-dihydro-7H-pyrrolo[3,4-d]pyrimidin-7-one], for which the half-inhibitory concentration (IC50) in assay [1] is 454 nM. On the same count and under the same terms, the value for `CC(=O)N1CCN(c2nc(NC(C)c3ccc4c(c3)CC(C)O4)c3c(n2)C(=O)N(C(C)C)C3)CC1` (stereo not drawn) [Example 324, 2-(4-acetylpiperazin-1-yl)-6-isopropyl-4-(1-(2-methyl-2,3-dihydrobenzofuran-5-yl)ethylamino)-5H-pyrrolo[3,4-d]pyrimidin-7(6H)-one] was 179 nM; that for `CC(=O)N1CCN(c2nc(N[C@H](C)c3ccc(CO)cc3)c3c(n2)C(=O)N(C(C)C)C3)CC1` [Example 332, (R)-2-(4-acetylpiperazin-1-yl)-4-(1-(4-(hydroxymethyl)phenyl)ethylamino)-6-isopropyl-5H-pyrrolo[3,4-d]pyrimidin-7(6H)-one] was above 30000 nM; that for `CCOc1ncc([C@@H](C)Nc2nc(N3CCN(C(C)=O)CC3)nc3c2CN(C(C)C)C3=O)cc1Cl` [Example 194, (R)-2-(4-acetylpiperazin-1-yl)-4-(1-(5-chloro-6-ethoxypyridin-3-yl)ethylamino)-6-isopropyl-5H-pyrrolo[3,4-d]pyrimidin-7(6H)-one] was 283 nM. In the case of `CC(=O)N1CCN(c2nc3c(c(N(C)Cc4cc5ccc(C)cc5cn4)n2)CN(C(C)C)C3=O)CC1` [Example 353, 2-(4-acetylpiperazin-1-yl)-6-isopropyl-4-(methyl((7-methylisoquinolin-3-yl)methyl)amino)-5H-pyrrolo[3,4-d]pyrimidin-7(6H)-one], the IC50 in assay [1] came to 61.1 nM.

As to `CCOc1ccc(CN(C)c2nc(N3CCN(C(C)=O)CC3)nc3c2CN(C(C)C)C3=O)c(OC)c1` [Example 334, 2-(4-acetylpiperazin-1-yl)-4-((4-ethoxy-2-methoxybenzyl)(methyl)amino)-6-isopropyl-5H-pyrrolo[3,4-d]pyrimidin-7(6H)-one], the IC50 in assay [1] stood at 2970 nM.

Regarding `CC(=O)N1CCN(c2nc3c(c(N(C)Cc4cnn(-c5ccc(F)cc5)c4)n2)CN(C(C)C)C3=O)CC1` [Example 339, 2-(4-acetylpiperazin-1-yl)-4-[{[1-(4-fluorophenyl)-1H-pyrazol-4-yl]methyl}(methyl)amino]-6-(1-methylethyl)-5,6-dihydro-7H-pyrrolo[3,4-d]pyrimidin-7-one], the IC50 in assay [1] was found to be 2280 nM. Still for that read-out and setting: the value for `CC(=O)N1CCN(c2nc3c(c(N(C)Cc4ccc5ccn(C)c5c4)n2)CN(C(C)C)C3=O)CC1` [Example 355, 2-(4-acetylpiperazin-1-yl)-6-(1-methylethyl)-4-{methyl[(1-methyl-1H-indol-6-yl)methyl]amino}-5,6-dihydro-7H-pyrrolo[3,4-d]pyrimidin-7-one] was 5760 nM; that for `CC(=O)N1CCN(c2nc3c(c(N(C)Cc4cc5cc(F)ccc5cn4)n2)CN(C(C)C)C3=O)CC1` [Example 349, 2-(4-acetylpiperazin-1-yl)-4-(((6-fluoroisoquinolin-3-yl)methyl)(methyl)amino)-6-isopropyl-5H-pyrrolo[3,4-d]pyrimidin-7(6H)-one] was 1050 nM; that for `CC(=O)N1CCN(c2nc(N[C@H](C)c3ccc(C4CC4)cc3)c3c(n2)C(=O)N(C(C)C)C3)CC1` [Example 192, (R)-2-(4-acetylpiperazin-1-yl)-4-(1-(4-cyclopropylphenyl)ethylamino)-6-isopropyl-5H-pyrrolo[3,4-d]pyrimidin-7(6H)-one] was 102 nM. For the compound `CCN1CCN(c2nc3c(c(N(C)Cc4cc5ccccc5cn4)n2)CN(C(C)C)C3=O)CC1=O` [Example 362, 2-(4-ethyl-3-oxopiperazin-1-yl)-6-isopropyl-4-((isoquinolin-3-ylmethyl)(methyl)amino)-5H-pyrrolo[3,4-d]pyrimidin-7(6H)-one], in assay [1], the IC50 was 356 nM. Same read-out and setting: the result for `CC(=O)N1CCN(c2nc(NC(C)c3nc4ccccc4s3)c3c(n2)C(=O)N(C(C)C)C3)CC1` (stereo not drawn) [Example 236, 2-(4-acetylpiperazin-1-yl)-4-(1-(benzo[d]thiazol-2-yl)ethylamino)-6-isopropyl-5H-pyrrolo[3,4-d]pyrimidin-7(6H)-one] reads 564 nM; that for `CC(C)N1Cc2c(NC(C)(C)Cc3ccc(F)cc3)nc(N3CCn4ccnc4C3)nc2C1=O` [Example 340, 2-(5,6-dihydroimidazo[1,2-a]pyrazin-7(8H)-yl)-4-{[2-(4-fluorophenyl)-1,1-dimethylethyl]amino}-6-(1-methylethyl)-5,6-dihydro-7H-pyrrolo[3,4-d]pyrimidin-7-one], 2710 nM; that for `COCc1ccc([C@@H](C)Nc2nc(N3CCN(C(C)=O)CC3)nc3c2CN(C(C)C)C3=O)cc1F` [Example 338, 2-(4-acetylpiperazin-1-yl)-4-({(1R)-1-[3-fluoro-4-(methoxymethyl)phenyl]ethyl}amino)-6-(1-methylethyl)-5,6-dihydro-7H-pyrrolo[3,4-d]pyrimidin-7-one], 2640 nM. On the same count and under the same terms, the result for `CC(=O)N1CCN(c2nc3c(c(N(C)Cc4cc5cc(Cl)ccc5cn4)n2)CN(C(C)C)C3=O)CC1` [Example 348, 2-(4-acetylpiperazin-1-yl)-4-(((6-chloroisoquinolin-3-yl)methyl)(methyl)amino)-6-isopropyl-5H-pyrrolo[3,4-d]pyrimidin-7(6H)-one] reads 2720 nM.
